≈ marks a conversion by molar mass, not a printed value.
Columns and labels:
B16 mouse melanoma cells [1] = assay: Experiment 1: gross observation of cell pellets after culture with sample; assay type: cell-based; settings: 5mM sample with 50mM c-AMP, three days; compared with blank culture
Procedure: (§1) Cultured B16 mouse melanoma cells (6x10^4 cells) were inoculated to Eagle's minimum essential medium (MEM) containing 5% (v/v) of fetal bovine serum (FBS) and pre-incubated for one day under 5% CO2 at 37° C before 4 days incubation with 0.1% D-glucosamine under the same conditions. Then the culture medium was replaced with one that contained 50mM of adenosine 3',5'-cyclic phosphate (c-AMP) and 5mM of 2,5-acetoxy benzoic acid as the sample, and incubated under 5% CO2 for three days at 37° C.
(§2) For comparison, a separate series of incubation was conducted under the same conditions using the same culture medium without 2,5-diacetoxy benzoic acid, and served as a blank.
After the incubation, the cells were isolated from the medium by centrifugation and made into a pellet.

T1-tyrosinase = assay: Experiment 1: SDS electrophoresis of intracellular tyrosinase isozymes (T1); assay type: cell-based, mouse; settings: 5mM sample, three days; compared with blank culture
Procedure: as §1, §2
(§3) Then the culture samples were analyzed by SDS electrophoresis for detection of B16 mouse melanoma intracellular tyrosinase isozymes. The conditions of the electrophoresis were: gel = polyacrylamide gel (T=7.5% w/v, C=3% w/v); buffer solution = 0.025 M tris- 0.192 M glycine buffer solution (pH = 8.3) containing 0.1% (v/v) sodium dodecyl sulfate (SDS); amount of application = 20uL per well [the mixing ratio of the buffer A (38ml of 0.125M tris-HCl buffer, 10ml of glycerin, 2g of SDS and 3mg of bromphenol blue)/culture sample = 1/1]. The concentration of the sample was adjusted to 1600ug/ml.

T3-tyrosinase = assay: Experiment 1: SDS electrophoresis of intracellular tyrosinase isozymes (T3); assay type: cell-based, mouse; settings: 5mM sample, three days; compared with blank culture
Procedure: as §1, §2, §3

intracellular tyrosinase = target: T1, intracellular tyrosinase (Mus musculus, UniProt P11344); assay: Experiments 2 and 5: inhibition of intracellular tyrosinase activity (Dopa value); assay type: cell-based; settings: for Dopa value: Fig. 1, 2.5mM or 5mM DABA, 2.5mM DAPECSAM, two days, compared with blank and with DHBA at the same concentration
T1 construct: endogenous in cells; host or cells: B16 mouse melanoma cells
T1 sequence (P11344 19-533): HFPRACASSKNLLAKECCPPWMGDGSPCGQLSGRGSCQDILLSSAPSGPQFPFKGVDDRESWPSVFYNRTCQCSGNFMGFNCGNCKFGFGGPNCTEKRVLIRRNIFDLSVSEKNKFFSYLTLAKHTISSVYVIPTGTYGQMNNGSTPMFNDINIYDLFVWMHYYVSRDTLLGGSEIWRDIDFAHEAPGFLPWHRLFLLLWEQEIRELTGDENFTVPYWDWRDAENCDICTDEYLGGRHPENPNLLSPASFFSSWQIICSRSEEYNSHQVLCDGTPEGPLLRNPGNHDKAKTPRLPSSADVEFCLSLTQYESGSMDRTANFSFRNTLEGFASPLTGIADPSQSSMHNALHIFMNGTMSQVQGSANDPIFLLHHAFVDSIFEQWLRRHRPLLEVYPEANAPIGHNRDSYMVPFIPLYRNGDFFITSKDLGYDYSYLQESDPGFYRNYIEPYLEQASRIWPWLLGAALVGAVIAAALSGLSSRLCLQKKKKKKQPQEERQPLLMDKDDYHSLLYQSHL
Procedure: (§4) Cultured B16 mouse melanoma cells were inoculated to a 96-well microplate (Corning Ltd.) at the rate of 8000 cells /well and pre-incubated in the Eagle's MEM containing 5% (v/v) FBS for one day under 5% CO2 at 37° C. After the pre-incubation, the culture medium was replaced with the Eagle's MEM containing 5% FBS, also containing 2.5mM or 5mM 2,5-diacetoxy benzoic acid or 2.5mM of 2-(2',5'-diacetoxy-benzoiloxy) benzoic acid, whereupon incubation was continued for two days under 5% CO2 at 37° C.
(§5) After the incubation, the medium was removed and a surfactant (Triton X-100) was mixed with the cells. Then 5mM of L-dopa or 0.2% of 3-(4,5-dimethylthiazol-2-yl)-2,5-diphenyltetrazorium bromide (MTT) was mixed for tyrosinase reaction at 37° C. Then the Dopa value and MTT test value were measured at the wavelength of 490nm and 570-630nm respectively using a microplate reader (Model 450, Bio Rad Ltd.).
(§6) For comparison, two series of culture with 2.5mM or 5mM of 2.5-dihydroxy benzoic acid instead of the compounds used in the present invention, as well as a culture without compound were prepared to serve as the positive controls and blank respectively.
(§7) It is believed that the higher the Dopa value, the higher the intracellular tyrosinase activity, while the lower the MTT test value, the lower the cultured B16 mouse melanoma cell activity.
(§8) The compound expressed by Formula A was used as an example of the 2,5-dihydroxy benzoic acid derivatives to evaluate its inhibitory effect on intracellular tyrosinase activity in accordance with the same protocol as followed in Experiment 2. [drawing 23]
(§9) However, the concentration was set to 2.5mM and the compound was dissolved in dimethyl sulfoxide before being applied to the culture medium.
(§10) The medium containing dimethyl sulfoxide was used for the blank culture. The results are shown in the graphs in Fig. 4 (Dopa levels) and Fig. 5 (MTT levels).

B16 mouse melanoma cells [2] = assay: Experiments 2 and 5: MTT test value (cell activity); assay type: cell-based; settings: for MTT value: Fig. 2, 2.5mM or 5mM DABA, 2.5mM DAPECSAM, two days, compared with DHBA cultures and blank
Procedure: as §4, §5, §6, §7, §8, §9, §10

cyclooxygenase = assay: Experiment 3: inhibition of cyclooxygenase activity (oxygen consumption); assay type: biochemical; settings: Fig. 3; 1.00ml of 5mM or 10mM solution; compared with blank (purified water)
Procedure: A mixture solution was prepared using 3.57ml of 0.2M tris-HCl buffer solution containing 20mM of L-tryptophan, 0.03ml of 40mM hemoglobin solution, 0.20ml of 400unit/ml cyclooxygenase solution, and 1.00ml of 5mM or 10mM 2.5-diacetoxy benzoic acid solution.
For comparison, a mixture using 1.00ml of purified water instead of 1.00ml of 2,5-diacetoxy benzoic acid was prepared to serve as a blank.
The mixture was incubated for five minutes at 37° C, and then 0.20ml of 0.2M tris-HCl buffer solution containing 2mM of arachidonic acid was added to the mixture for cyclooxygenase reaction. Immediately after the reaction started, the amount of dissolved oxygen in the reaction solution was measured using a biological oxygen monitor (YSI Model 5300, Meridian Instruments Far East, Ltd.). On the basis of the measurement of the dissolved oxygen level, the change in oxygen consumption attendant on the progress of the reaction time was determined.
It is believed that the less the oxygen consumption, the more the cyclooxygenase was inhibited.

in vitro = assay type: cell-based; settings: rabbit, sirc-c cells
Procedure: Cultured rabbit cornea cells (SIRC-C) were inoculated to a 96-well microplate (Corning Ltd.) at the rate of 5000 cells/well, and pre-incubated with Eagle's MEM containing 5% (v/v) FBS for one day under 5% CO2 at 37° C. Then 0.2ml of Eagle's MEM containing 0.05% neutral red was added to the culture medium and incubation was continued for two days under the same conditions. Furthermore, 2,5-diacetoxy benzoic acid was added to the culture medium at the concentrations of 0.025% (w/v) (10.5mM), 0.05% (w/v) (21mM), 0.1% (w/v) (42mM) or 0.2% (w/v) (84mM) and incubated again for two days under 5% CO 2 at 37° C.
For comparison, cultures with 30ug/ml, 60ug/ml or 90ug/ml of sodium dodecyl sulfate instead of 2,5-diacetoxy benzoic acid and without any compound were prepared and served as the positive control and the blank respectively.
The cultures were tested by analyzing SIRC-C neutral red intake, which is one of the alternative methods of eye-irritation test, and the midpoint cytotoxicity (NR50) value was derived from the neutral red intake rate to evaluate the potential irritation effect.
It is believed that, since the neutral red intake decreases with the increase in the irritation of the compound to SIRC-C, the higher the NR50 concentration of the sample solution, the lower the irritation to the cells.

**Q.** What does the source list for `CC(=O)Oc1ccc(OC(C)=O)c(C(=O)O)c1` [DABA, 2,5-diacetoxy benzoic acid]?
**A.** gross observation of pellets (B16 mouse melanoma cells [1]): significantly whitened; band of T1-tyrosinase (T1-tyrosinase): significantly reduced; T3-tyrosinase band (T3-tyrosinase): disappeared; Dopa value (intracellular tyrosinase): much lower than that of the blank; inhibitory effect on intracellular tyrosinase compared with kojic acid and albutin (intracellular tyrosinase; within a concentration range that did not inhibit cell activity): the same or even higher; MTT value (B16 mouse melanoma cells [2]): not much lower; increase in oxygen consumption attendant upon progress of reaction time (cyclooxygenase): much lower; CC50 at 48 h (in vitro): 1000 to 2000 µg/mL (≈ 4.2 to 8.4 mM)

**Q.** Which CC50 at 48 h (in vitro) does the source give for `CCCCCCCCCCCCOS(=O)(=O)[O-].[Na+]` [SDS, sodium dodecyl sulfate, reference compound] here?
**A.** ~60 µg/mL

**Q.** With `COC(=O)c1ccccc1OC(=O)c1cc(OC(C)=O)ccc1OC(C)=O` [Formula A] as the molecule, how does the “intracellular tyrosinase activity (Dopa levels)” value (intracellular tyrosinase; Experiment 5, Fig. 4, 2.5mM, dissolved in dimethyl sulfoxide, blank with dimethyl sulfoxide) read?
**A.** significantly inhibited

**Q.** And the “cell activity (MTT levels)” value (B16 mouse melanoma cells [2]; Experiment 5, Fig. 5, 2.5mM, dissolved in dimethyl sulfoxide, blank with dimethyl sulfoxide)?
**A.** not the cell activity

**Q.** Which results are given for `COC(=O)c1ccccc1OC(=O)c1cc(OC(C)=O)ccc1OC(C)=O` [DAPECSAM, 2-(2'5'-diacetoxy-benzoiloxy) benzoic acid methyl ester]?
**A.** Dopa value (intracellular tyrosinase): much lower than that of the blank; MTT value (B16 mouse melanoma cells [2]): not much lower

From patent EP0955032A1, “COSMETIC” (Technoble Co., Ltd., priority 1996, dated 1997)
